From paper PMC12287140, “Branched-chain amino acid catabolism initiates volatile synthesis in Gentiana triflora” (Planta, 2025) come the findings set out here.

Structures are written as SMILES.

Broadly, the Km is the substrate concentration at which the rate is half of its maximum.

One assay concerns T1, GeBCAT1.
T1 construct: open reading frame (390 aa, predicted mitochondrial transit peptide) in pEU-FLAG-GST-GW; FLAG-GST tag, no cleavage told; wheat cell-free synthesis, GST-purified
In words: deamination assay, LC-TOF-MS of PFBHA-derivatized keto acid. The assay is classed as biochemical, Gentiana triflora. The settings on record: 120 mM alpha-ketoglutarate, 0.16 mM PLP, 4 mM DTT, 0.1 M Tris-HCl pH 8.0, 33 °C. The text has this:
deamination assay, LC-TOF-MS of PFBHA-derivatized keto acid on GeBCAT1 | Km and Vmax values of recombinant GeBCAT1 and GeBCAT2 are shown for different substrates

Another assay concerns T2, GeBCAT2.
T2 construct: open reading frame (411 aa, predicted plastid transit peptide) in pEU-FLAG-GST-GW; FLAG-GST tag, no cleavage told; wheat cell-free synthesis, GST-purified
The description is as above. The settings on record: 120 mM alpha-ketoglutarate, 0.16 mM PLP, 4 mM DTT, 0.1 M Tris-HCl pH 8.0, 33 °C. The assay is classed as biochemical, Gentiana triflora. The text has this:
deamination assay, LC-TOF-MS of PFBHA-derivatized keto acid on GeBCAT2 | Km and Vmax values of recombinant GeBCAT1 and GeBCAT2 are shown for different substrates

In the case of `CC(C)C[C@H](N)C(=O)O` [Leu], the values for the Km in the assay with GeBCAT1 and in the assay with GeBCAT2 were 780 ± 280 µM and 650 ± 29 µM, respectively.

Consider `CC(C)[C@H](N)C(=O)O` [Val], for which the Michaelis constant (Km) in the assay on GeBCAT1 came to 79 ± 15 µM; in the assay on GeBCAT2, 4570 ± 320 µM.

In the case of `CC[C@H](C)[C@H](N)C(=O)O` [Ile], the Km in the assay on GeBCAT1 came to 88 ± 40 µM; in the assay on GeBCAT2, 310 ± 15 µM.
